In paper PMC5622171 (Nature Communications, 2017):

Legend:
Assay in all cases: KINOMEscan kinase profiling
Format in all cases: binding
AMPK-alpha1 = biological target: T1, AMPK-alpha1 (Homo sapiens, UniProt Q13131); conditions: read-out: %Inhibition by 10 μM SPA70
T1 construct: purchased DiscoverX (Ambit Biosciences) KINOMEscan
How it was run: (§1)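 KINOMEscan profiling followed a published protocol. Kinases whose inhibition exceeded a set cut-off were then tested in a dilution series beginning at 30 µM.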

AURKB = biological target: T2, AURKB (Homo sapiens, UniProt Q96GD4); conditions: read-out: %Inhibition by 10 μM SPA70
T2 construct: purchased DiscoverX (Ambit Biosciences) KINOMEscan
How it was run: as §1

AXL = biological target: T3, AXL (Homo sapiens, UniProt P30530); conditions: read-out: %Inhibition by 10 μM SPA70
T3 construct: purchased DiscoverX (Ambit Biosciences) KINOMEscan
How it was run: as §1

BTK = biological target: T4, BTK (Homo sapiens, UniProt Q06187)
T4 construct: purchased DiscoverX (Ambit Biosciences) KINOMEscan
How it was run: as §1

CAMK1D = biological target: T5, CAMK1D (Homo sapiens, UniProt Q8IU85); conditions: read-out: %Inhibition by 10 μM SPA70
T5 construct: purchased DiscoverX (Ambit Biosciences) KINOMEscan
How it was run: as §1

CAMK2B = biological target: T6, CAMK2B (Homo sapiens, UniProt Q13554); conditions: read-out: %Inhibition by 10 μM SPA70
T6 construct: purchased DiscoverX (Ambit Biosciences) KINOMEscan
How it was run: as §1

CDC2L2 = biological target: T7, CDC2L2 (Homo sapiens, UniProt Q9UQ88); conditions: read-out: %Inhibition by 10 μM SPA70
T7 construct: purchased DiscoverX (Ambit Biosciences) KINOMEscan
How it was run: as §1

CDK8 = biological target: T8, CDK8 (Homo sapiens, UniProt P49336)
T8 construct: purchased DiscoverX (Ambit Biosciences) KINOMEscan
How it was run: as §1

CDKL1 = biological target: T9, CDKL1 (Homo sapiens, UniProt Q00532); conditions: read-out: %Inhibition by 10 μM SPA70
T9 construct: purchased DiscoverX (Ambit Biosciences) KINOMEscan
How it was run: as §1

CDKL3 = biological target: T10, CDKL3 (Homo sapiens, UniProt Q8IVW4); conditions: read-out: %Inhibition by 10 μM SPA70
T10 construct: purchased DiscoverX (Ambit Biosciences) KINOMEscan
How it was run: as §1

CIT = biological target: T11, CIT (Homo sapiens, UniProt O14578)
T11 construct: purchased DiscoverX (Ambit Biosciences) KINOMEscan
How it was run: as §1

CLK3 = biological target: T12, CLK3 (Homo sapiens, UniProt P49761); conditions: read-out: %Inhibition by 10 μM SPA70
T12 construct: purchased DiscoverX (Ambit Biosciences) KINOMEscan
How it was run: as §1

CTK = biological target: T13, CTK (Homo sapiens, UniProt P42679); conditions: read-out: %Inhibition by 10 μM SPA70
T13 construct: purchased DiscoverX (Ambit Biosciences) KINOMEscan
How it was run: as §1

DYRK2 = biological target: T14, DYRK2 (Homo sapiens, UniProt Q92630); conditions: read-out: %Inhibition by 10 μM SPA70
T14 construct: purchased DiscoverX (Ambit Biosciences) KINOMEscan
How it was run: as §1

FRK = biological target: T15, FRK (Homo sapiens, UniProt P42685); conditions: read-out: %Inhibition by 10 μM SPA70
T15 construct: purchased DiscoverX (Ambit Biosciences) KINOMEscan
How it was run: as §1

FYN = biological target: T16, FYN (Homo sapiens, UniProt P06241); conditions: read-out: %Inhibition by 10 μM SPA70
T16 construct: purchased DiscoverX (Ambit Biosciences) KINOMEscan
How it was run: as §1

GAK = biological target: T17, GAK (Homo sapiens, UniProt O14976); conditions: read-out: %Inhibition by 10 μM SPA70
T17 construct: purchased DiscoverX (Ambit Biosciences) KINOMEscan
How it was run: as §1

INSR = biological target: T18, INSR (Homo sapiens, UniProt P06213); conditions: read-out: %Inhibition by 10 μM SPA70
T18 construct: purchased DiscoverX (Ambit Biosciences) KINOMEscan
How it was run: as §1

[1] = biological target: T19, JAK1(JH2domain-pseudokinase) (Homo sapiens, UniProt P23458)
T19 construct: JAK1(JH2domain-pseudokinase); purchased DiscoverX (Ambit Biosciences) KINOMEscan
How it was run: as §1

LRRK2 = biological target: T20, LRRK2 (Homo sapiens, UniProt Q5S007); conditions: read-out: %Inhibition by 10 μM SPA70
T20 construct: purchased DiscoverX (Ambit Biosciences) KINOMEscan
How it was run: as §1

MAP3K4 = biological target: T21, MAP3K4 (Homo sapiens, UniProt Q9Y6R4); conditions: read-out: %Inhibition by 10 μM SPA70
T21 construct: purchased DiscoverX (Ambit Biosciences) KINOMEscan
How it was run: as §1

MAPKAPK5 = biological target: T22, MAPKAPK5 (Homo sapiens, UniProt Q8IW41); conditions: read-out: %Inhibition by 10 μM SPA70
T22 construct: purchased DiscoverX (Ambit Biosciences) KINOMEscan
How it was run: as §1

MARK3 = biological target: T23, MARK3 (Homo sapiens, UniProt P27448); conditions: read-out: %Inhibition by 10 μM SPA70
T23 construct: purchased DiscoverX (Ambit Biosciences) KINOMEscan
How it was run: as §1

MELK = biological target: T24, MELK (Homo sapiens, UniProt Q14680); conditions: read-out: %Inhibition by 10 μM SPA70
T24 construct: purchased DiscoverX (Ambit Biosciences) KINOMEscan
How it was run: as §1

MST4 = biological target: T25, MST4 (Homo sapiens, UniProt Q9P289); conditions: read-out: %Inhibition by 10 μM SPA70
T25 construct: purchased DiscoverX (Ambit Biosciences) KINOMEscan
How it was run: as §1

MTOR = biological target: T26, MTOR (Homo sapiens, UniProt P42345); conditions: read-out: %Inhibition by 10 μM SPA70
T26 construct: purchased DiscoverX (Ambit Biosciences) KINOMEscan
How it was run: as §1

MYLK4 = biological target: T27, MYLK4 (Homo sapiens, UniProt Q86YV6); conditions: read-out: %Inhibition by 10 μM SPA70
T27 construct: purchased DiscoverX (Ambit Biosciences) KINOMEscan
How it was run: as §1

NEK7 = biological target: T28, NEK7 (Homo sapiens, UniProt Q8TDX7); conditions: read-out: %Inhibition by 10 μM SPA70
T28 construct: purchased DiscoverX (Ambit Biosciences) KINOMEscan
How it was run: as §1

OSR1 = biological target: T29, OSR1 (Homo sapiens, UniProt O95747); conditions: read-out: %Inhibition by 10 μM SPA70
T29 construct: purchased DiscoverX (Ambit Biosciences) KINOMEscan
How it was run: as §1

PDGFRA = biological target: T30, PDGFRA (Homo sapiens, UniProt P16234); conditions: read-out: %Inhibition by 10 μM SPA70
T30 construct: purchased DiscoverX (Ambit Biosciences) KINOMEscan
How it was run: as §1

PIK3CD = biological target: T31, PIK3CD (Homo sapiens, UniProt O00329); conditions: read-out: %Inhibition by 10 μM SPA70
T31 construct: purchased DiscoverX (Ambit Biosciences) KINOMEscan
How it was run: as §1

PLK2 = biological target: T32, PLK2 (Homo sapiens, UniProt Q9NYY3)
T32 construct: purchased DiscoverX (Ambit Biosciences) KINOMEscan
How it was run: as §1

PRKD3 = biological target: T33, PRKD3 (Homo sapiens, UniProt O94806); conditions: read-out: %Inhibition by 10 μM SPA70
T33 construct: purchased DiscoverX (Ambit Biosciences) KINOMEscan
How it was run: as §1

PYK2 = biological target: T34, PYK2 (Homo sapiens, UniProt Q14289); conditions: read-out: %Inhibition by 10 μM SPA70
T34 construct: purchased DiscoverX (Ambit Biosciences) KINOMEscan
How it was run: as §1

RIOK2 = biological target: T35, RIOK2 (Homo sapiens, UniProt Q9BVS4); conditions: read-out: %Inhibition by 10 μM SPA70
T35 construct: purchased DiscoverX (Ambit Biosciences) KINOMEscan
How it was run: as §1

[2] = biological target: T36, RPS6KA4(Kin.Dom.1-N-terminal) (Homo sapiens, UniProt O75676); conditions: read-out: %Inhibition by 10 μM SPA70
T36 construct: RPS6KA4(Kin.Dom.1-N-terminal); purchased DiscoverX (Ambit Biosciences) KINOMEscan
How it was run: as §1

[3] = biological target: T37, RPS6KA5(Kin.Dom.1-N-terminal) (Homo sapiens, UniProt O75582); conditions: read-out: %Inhibition by 10 μM SPA70
T37 construct: RPS6KA5(Kin.Dom.1-N-terminal); purchased DiscoverX (Ambit Biosciences) KINOMEscan
How it was run: as §1

SRC = biological target: T38, SRC (Homo sapiens, UniProt P12931); conditions: read-out: %Inhibition by 10 μM SPA70
T38 construct: purchased DiscoverX (Ambit Biosciences) KINOMEscan
How it was run: as §1

SgK110 = biological target: T39, SgK110 (Homo sapiens, UniProt P0C264); conditions: read-out: %Inhibition by 10 μM SPA70
T39 construct: purchased DiscoverX (Ambit Biosciences) KINOMEscan
How it was run: as §1

TNK1 = biological target: T40, TNK1 (Homo sapiens, UniProt Q13470); conditions: read-out: %Inhibition by 10 μM SPA70
T40 construct: purchased DiscoverX (Ambit Biosciences) KINOMEscan
How it was run: as §1

YSK4 = biological target: T41, YSK4 (Homo sapiens, UniProt Q56UN5); conditions: read-out: %Inhibition by 10 μM SPA70
T41 construct: purchased DiscoverX (Ambit Biosciences) KINOMEscan
How it was run: as §1

T19 sequence (P23458 583-855 limits assumed): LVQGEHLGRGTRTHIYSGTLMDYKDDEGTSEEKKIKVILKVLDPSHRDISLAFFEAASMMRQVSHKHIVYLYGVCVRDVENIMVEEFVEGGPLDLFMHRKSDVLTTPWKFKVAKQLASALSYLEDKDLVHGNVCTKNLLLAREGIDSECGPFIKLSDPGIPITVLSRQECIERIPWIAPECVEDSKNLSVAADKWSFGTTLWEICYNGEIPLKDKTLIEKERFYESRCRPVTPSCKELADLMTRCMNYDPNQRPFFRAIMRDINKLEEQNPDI
T28 sequence (Q8TDX7 whole entry): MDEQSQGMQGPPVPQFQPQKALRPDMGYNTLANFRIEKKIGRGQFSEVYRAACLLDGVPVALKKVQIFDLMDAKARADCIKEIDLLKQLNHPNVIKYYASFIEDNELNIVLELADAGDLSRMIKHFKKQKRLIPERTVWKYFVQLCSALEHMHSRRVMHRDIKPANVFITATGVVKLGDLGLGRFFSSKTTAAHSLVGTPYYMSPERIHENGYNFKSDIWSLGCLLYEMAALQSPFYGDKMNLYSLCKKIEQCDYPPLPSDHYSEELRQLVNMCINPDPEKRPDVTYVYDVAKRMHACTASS
T41 sequence (Q56UN5 whole entry): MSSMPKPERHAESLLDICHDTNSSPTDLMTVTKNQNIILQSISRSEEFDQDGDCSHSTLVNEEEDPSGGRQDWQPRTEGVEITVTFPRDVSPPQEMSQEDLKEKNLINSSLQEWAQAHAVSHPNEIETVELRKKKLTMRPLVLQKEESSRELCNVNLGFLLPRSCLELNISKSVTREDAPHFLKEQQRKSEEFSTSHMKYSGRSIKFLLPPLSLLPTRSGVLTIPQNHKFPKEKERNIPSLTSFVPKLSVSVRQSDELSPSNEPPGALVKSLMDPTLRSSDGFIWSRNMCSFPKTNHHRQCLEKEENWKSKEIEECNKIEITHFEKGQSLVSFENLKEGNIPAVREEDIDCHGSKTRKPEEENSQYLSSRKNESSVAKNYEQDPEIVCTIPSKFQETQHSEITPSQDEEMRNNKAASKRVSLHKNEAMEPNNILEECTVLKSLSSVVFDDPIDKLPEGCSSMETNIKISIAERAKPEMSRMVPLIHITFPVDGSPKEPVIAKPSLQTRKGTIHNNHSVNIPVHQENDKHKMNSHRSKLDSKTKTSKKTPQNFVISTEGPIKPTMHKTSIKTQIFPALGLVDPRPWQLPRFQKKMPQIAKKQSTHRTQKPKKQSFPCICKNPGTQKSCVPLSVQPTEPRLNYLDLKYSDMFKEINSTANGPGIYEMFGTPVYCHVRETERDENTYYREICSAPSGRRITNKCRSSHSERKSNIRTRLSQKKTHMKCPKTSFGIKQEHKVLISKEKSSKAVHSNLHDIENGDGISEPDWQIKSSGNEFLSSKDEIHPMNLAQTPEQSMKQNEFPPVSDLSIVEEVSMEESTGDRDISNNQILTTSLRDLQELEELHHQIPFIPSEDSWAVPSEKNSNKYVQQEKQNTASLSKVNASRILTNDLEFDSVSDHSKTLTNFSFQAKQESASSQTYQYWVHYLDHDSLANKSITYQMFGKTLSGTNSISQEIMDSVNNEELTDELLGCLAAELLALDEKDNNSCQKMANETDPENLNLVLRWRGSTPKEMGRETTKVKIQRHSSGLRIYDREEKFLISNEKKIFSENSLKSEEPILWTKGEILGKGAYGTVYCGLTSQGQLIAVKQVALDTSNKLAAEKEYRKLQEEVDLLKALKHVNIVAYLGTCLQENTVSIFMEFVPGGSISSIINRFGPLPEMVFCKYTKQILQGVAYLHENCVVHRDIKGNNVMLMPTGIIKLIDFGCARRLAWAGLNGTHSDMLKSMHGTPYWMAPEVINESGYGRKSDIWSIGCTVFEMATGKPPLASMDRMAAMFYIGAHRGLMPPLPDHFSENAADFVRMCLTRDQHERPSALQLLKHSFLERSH
T8 sequence (P49336 whole entry): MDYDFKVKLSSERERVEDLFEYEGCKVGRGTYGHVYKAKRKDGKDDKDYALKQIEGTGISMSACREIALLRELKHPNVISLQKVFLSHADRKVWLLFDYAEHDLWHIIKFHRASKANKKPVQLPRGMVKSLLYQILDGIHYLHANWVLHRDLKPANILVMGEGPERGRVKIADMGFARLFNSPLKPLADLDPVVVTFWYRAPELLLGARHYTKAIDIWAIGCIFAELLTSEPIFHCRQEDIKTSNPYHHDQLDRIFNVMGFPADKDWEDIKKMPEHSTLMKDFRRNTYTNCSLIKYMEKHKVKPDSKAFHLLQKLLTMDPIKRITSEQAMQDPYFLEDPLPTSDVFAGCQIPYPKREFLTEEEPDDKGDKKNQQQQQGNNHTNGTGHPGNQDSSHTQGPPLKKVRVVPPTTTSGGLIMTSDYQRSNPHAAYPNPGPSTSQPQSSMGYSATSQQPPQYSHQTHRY
T34 sequence (Q14289 whole entry): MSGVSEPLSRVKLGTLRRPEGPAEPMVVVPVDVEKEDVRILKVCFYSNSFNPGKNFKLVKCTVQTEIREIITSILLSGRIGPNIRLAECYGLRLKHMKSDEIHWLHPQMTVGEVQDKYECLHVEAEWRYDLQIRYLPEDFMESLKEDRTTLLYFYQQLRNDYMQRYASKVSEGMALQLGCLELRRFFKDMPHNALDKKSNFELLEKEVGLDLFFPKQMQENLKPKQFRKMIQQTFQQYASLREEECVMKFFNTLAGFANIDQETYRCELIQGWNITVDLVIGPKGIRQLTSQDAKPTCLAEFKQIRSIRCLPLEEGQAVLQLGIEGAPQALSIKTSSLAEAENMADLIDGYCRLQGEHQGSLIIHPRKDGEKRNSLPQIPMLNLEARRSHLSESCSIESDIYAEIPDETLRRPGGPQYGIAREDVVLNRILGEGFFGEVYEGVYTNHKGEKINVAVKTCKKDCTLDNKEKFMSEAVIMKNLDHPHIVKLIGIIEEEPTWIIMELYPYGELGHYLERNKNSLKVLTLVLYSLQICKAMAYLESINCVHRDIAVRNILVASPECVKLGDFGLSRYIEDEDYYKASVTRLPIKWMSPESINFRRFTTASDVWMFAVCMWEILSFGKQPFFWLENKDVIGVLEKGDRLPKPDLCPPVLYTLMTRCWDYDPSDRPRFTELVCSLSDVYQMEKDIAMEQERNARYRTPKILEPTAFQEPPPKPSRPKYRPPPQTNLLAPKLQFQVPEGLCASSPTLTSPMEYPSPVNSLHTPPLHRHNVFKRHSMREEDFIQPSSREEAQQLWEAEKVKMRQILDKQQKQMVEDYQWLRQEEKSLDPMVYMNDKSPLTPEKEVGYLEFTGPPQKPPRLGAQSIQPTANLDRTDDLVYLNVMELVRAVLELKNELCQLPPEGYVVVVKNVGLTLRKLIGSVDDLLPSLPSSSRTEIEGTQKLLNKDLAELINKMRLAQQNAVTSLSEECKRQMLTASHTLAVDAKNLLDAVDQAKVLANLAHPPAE
T13 sequence (P42679 whole entry): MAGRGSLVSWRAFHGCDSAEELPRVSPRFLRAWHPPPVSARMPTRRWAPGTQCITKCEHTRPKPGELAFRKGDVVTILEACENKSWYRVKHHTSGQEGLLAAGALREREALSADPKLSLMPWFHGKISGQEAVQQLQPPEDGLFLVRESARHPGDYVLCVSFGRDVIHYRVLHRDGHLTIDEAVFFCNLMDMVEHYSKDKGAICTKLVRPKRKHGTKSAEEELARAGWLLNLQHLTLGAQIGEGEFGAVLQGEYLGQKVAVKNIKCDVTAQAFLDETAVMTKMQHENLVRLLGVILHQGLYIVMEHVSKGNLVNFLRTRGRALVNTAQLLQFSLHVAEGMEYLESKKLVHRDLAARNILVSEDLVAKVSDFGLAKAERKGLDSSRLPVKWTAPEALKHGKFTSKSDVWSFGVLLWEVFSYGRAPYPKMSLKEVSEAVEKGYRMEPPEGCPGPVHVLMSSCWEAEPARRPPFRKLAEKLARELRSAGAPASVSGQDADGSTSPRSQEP
T29 sequence (O95747 whole entry): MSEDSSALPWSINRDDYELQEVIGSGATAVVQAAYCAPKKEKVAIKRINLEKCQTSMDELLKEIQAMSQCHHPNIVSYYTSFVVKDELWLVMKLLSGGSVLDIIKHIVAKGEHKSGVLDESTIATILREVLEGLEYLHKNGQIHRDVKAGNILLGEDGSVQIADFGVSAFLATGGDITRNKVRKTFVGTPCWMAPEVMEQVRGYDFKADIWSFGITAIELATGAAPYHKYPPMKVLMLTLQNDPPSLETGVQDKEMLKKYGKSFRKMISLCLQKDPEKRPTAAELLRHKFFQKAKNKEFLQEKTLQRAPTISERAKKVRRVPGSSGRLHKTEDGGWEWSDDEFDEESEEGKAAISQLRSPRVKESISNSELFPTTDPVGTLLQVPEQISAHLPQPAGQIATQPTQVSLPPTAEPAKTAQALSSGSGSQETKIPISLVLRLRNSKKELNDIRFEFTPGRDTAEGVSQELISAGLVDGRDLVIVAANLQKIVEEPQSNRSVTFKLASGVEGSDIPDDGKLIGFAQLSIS
T15 sequence (P42685 whole entry): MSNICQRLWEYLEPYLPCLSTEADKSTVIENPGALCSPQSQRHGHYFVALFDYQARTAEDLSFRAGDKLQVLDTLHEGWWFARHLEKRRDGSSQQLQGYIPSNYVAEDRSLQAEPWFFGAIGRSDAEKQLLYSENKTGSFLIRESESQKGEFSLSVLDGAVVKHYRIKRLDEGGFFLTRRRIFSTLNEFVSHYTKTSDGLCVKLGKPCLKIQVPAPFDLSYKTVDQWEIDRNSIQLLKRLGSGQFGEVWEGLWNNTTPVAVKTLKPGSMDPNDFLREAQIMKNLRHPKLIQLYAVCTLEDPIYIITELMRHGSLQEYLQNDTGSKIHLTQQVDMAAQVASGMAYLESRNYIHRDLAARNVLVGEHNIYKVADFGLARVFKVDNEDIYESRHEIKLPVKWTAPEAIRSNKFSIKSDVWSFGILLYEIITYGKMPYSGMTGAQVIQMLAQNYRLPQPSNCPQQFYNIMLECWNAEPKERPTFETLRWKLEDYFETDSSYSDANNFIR

COc1ccc(OC)c(-n2nnc(S(=O)(=O)c3ccc(C(C)(C)C)cc3)c2C)c1 [SPA70]
inhibition at 10 µM (AMPK-alpha1): 0% | inhibition at 10 µM (AURKB): 8% | inhibition at 10 µM (AXL): 0% | %Inhibition by 10 μM SPA70 (BTK): 23% | inhibition at 10 µM (CAMK1D): 20% | inhibition at 10 µM (CAMK2B): 13% | inhibition at 10 µM (CDC2L2): 9% | %Inhibition by 10 μM SPA70 (CDK8): 2% | inhibition at 10 µM (CDKL1): 9% | inhibition at 10 µM (CDKL3): 6% | %Inhibition by 10 μM SPA70 (CIT): 12% | inhibition at 10 µM (CLK3): 0% | inhibition at 10 µM (CTK): 6% | inhibition at 10 µM (DYRK2): 12% | inhibition at 10 µM (FRK): 0% | inhibition at 10 µM (FYN): 0% | inhibition at 10 µM (GAK): 3% | inhibition at 10 µM (INSR): 0% | %Inhibition by 10 μM SPA70 [1]: 0% | inhibition at 10 µM (LRRK2): 0% | inhibition at 10 µM (MAP3K4): 0% | inhibition at 10 µM (MAPKAPK5): 12% | inhibition at 10 µM (MARK3): 2% | inhibition at 10 µM (MELK): 3% | inhibition at 10 µM (MST4): 15% | inhibition at 10 µM (MTOR): 0% | inhibition at 10 µM (MYLK4): 0% | inhibition at 10 µM (NEK7): 0% | inhibition at 10 µM (OSR1): 14% | inhibition at 10 µM (PDGFRA): 36% | inhibition at 10 µM (PIK3CD): 0% | %Inhibition by 10 μM SPA70 (PLK2): 9% | inhibition at 10 µM (PRKD3): 0% | inhibition at 10 µM (PYK2): 2% | inhibition at 10 µM (RIOK2): 0% | inhibition at 10 µM [2]: 0% | inhibition at 10 µM [3]: 14% | inhibition at 10 µM (SRC): 0% | inhibition at 10 µM (SgK110): 0% | inhibition at 10 µM (TNK1): 0% | inhibition at 10 µM (YSK4): 0%
